These results are taken from PubChem BioAssay (NCI).

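Exposure lasted 48 hours, with cells grown in 96-well plates and compounds tested at five concentrations. At the TGI there is no net growth.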

One assay concerns SK-MEL-5 melanoma. Briefly: NCI tumour cell line growth inhibition, 48 h.
In turn, `CCCCCCCCCCCCCCCCCCNc1ccn(C2OC(COP(=O)(O)OCC3OC(n4ccc(NC(=O)CCCCCCCCCCCCCCCCC)nc4=O)C(OC(C)=O)C3OC(C)=O)C(OC(C)=O)C2OC(C)=O)c(=O)n1` (stereo not drawn) yielded a TGI greater than 100 µM.
`Cc1nc2c(sc(=S)n2-c2ccccc2)c2nc3ncccc3n12` had a TGI greater than 100 µM.
As for `Cc1ccc(-c2c(C#N)c(-c3ccccc3)n(NS(=O)(=O)c3ccccc3)c(=O)c2C#N)cc1`, the TGI is greater than 100 µM.
Consider `COc1ccc(N2C(=O)C3c4[nH]c5ccc(OCc6ccccc6)cc5c4C4CCC(C(C)(C)C)CC4C3C2=O)cc1` (stereo not drawn), for which the TGI is greater than 100 µM.
Same read-out and setting: the same measure for `COc1ccc(C(C#N)NNC(=O)c2ccccc2O)cc1OC` (stereo not drawn): 46.9 µM; for `O=c1[nH]n2c(=O)cc[nH]c2c1-c1nnns1`: greater than 100 µM.
Still for that read-out and setting: the same measure for `N.N.N.O=[N+]([O-])[O-].O=[N+]([O-])[O-].O=[N+]([O-])[O-].O=[N+]([O-])[O-].[Co+3]`: greater than 100 µM; for `Cc1nnc(Nc2ccccc2)o1`: greater than 100 µM.

The test system of another assay is SNB-75 CNS. Nature of the assay: NCI tumour cell line growth inhibition, 48 h.
`NC(C(F)(F)F)(C(F)(F)F)P(=O)(Cc1ccccc1)Cc1ccccc1` came in with a TGI greater than 100 µM.
Compound `S=C(N/N=C\C=N/NC(=S)N1CCCCC1)N1CCCCC1` showed a TGI greater than 100 µM.
Still for that read-out and setting: the same measure for `CN1C(=O)C2C(=O)N(Cc3ccccc3)CC(=O)N2c2cccnc21` (stereo not drawn): greater than 100 µM; for `Cc1cc(N(CCC#N)CCC#N)ccc1/C=N/NC(=O)c1cc(Cl)ccc1O`: greater than 100 µM.
On the same count and under the same terms, under `Cc1ccc(C(=O)Nc2ccc(CP(=O)(O)O)cc2CP(=O)(O)O)cc1NC(=O)c1cccc(N)c1` stands greater than 100 µM; under `CN(C)/N=N/c1nc2c(c(=O)n(C)c(=O)n2C)n1C`, greater than 100 µM.
On to `COc1ccccc1N/C(=C\C(=O)C(=O)NC12CC3CC(CC(C3)C1)C2)c1ccccc1`, for which the TGI was greater than 10 µM.
For the compound `O=C(CC(=O)n1nc(-c2ccccc2)c(N=Nc2ccccc2C(=O)O)c1-c1ccccc1)Nc1ccc(Cl)cc1`, the TGI turned out to be 83.1 µM.
The compound `CCN1CC2=C(NC(=S)NC2c2ccc(Cl)cc2)/C(=C/c2ccc(Cl)cc2)C1` (stereo not drawn) came in with a TGI greater than 100 µM.
In turn, `CCOC(=O)C1Cc2[nH]c3ccccc3c2C(C)C1C` (stereo not drawn) had a TGI of 34.4 µM.
Still for that read-out and setting: the same measure for `NC(=O)N/N=C(\Cc1nc2ccc(Cl)cc2[nH]c1=O)C(=O)Nc1ccc(Cl)cc1Cl`: greater than 100 µM; for `OCCCCCNc1c2ccccc2nc2ccccc12`: 12.5 µM; for `O=C(/C=C/c1ccc(O)c([N+](=O)[O-])c1)CC(=O)/C=C/c1ccc(O)c([N+](=O)[O-])c1`: greater than 100 µM.
Turning to `CC(C)=CCOC(=O)C(C)=[N+]=[N-]`, the TGI was greater than 100 µM.
On the same count and under the same terms, under `Cn1cc2ccccc2c1-c1nc(N)nc(F)n1` stands greater than 100 µM.
`c1ccc2c(c1)OC(N1CCCC1)c1cnc(N3CCCC3)nc1-2` (stereo not drawn) came in with a TGI of 57.1 µM.
Regarding `CC1=C(O)C(=O)[C@@H]2O[C@@H]2C1=O`, the TGI is 31.9 µM.
On the same count and under the same terms, the same measure for `CC(C)c1ccc2[nH]c(O)c(-c3[nH]c4ccccc4c3N=O)c2c1`: 26.3 µM.
In turn, `CCCCCCCCCCCCCCCCCCNc1ccn(C2OC(COP(=O)(O)OCC3OC(n4ccc(NC(=O)CCCCCCCCCCCCCCCCC)nc4=O)C(OC(C)=O)C3OC(C)=O)C(OC(C)=O)C2OC(C)=O)c(=O)n1` (stereo not drawn) displayed a TGI greater than 100 µM.
Same read-out and setting: the same measure for `Cc1nc2c(sc(=S)n2-c2ccccc2)c2nc3ncccc3n12`: 64.5 µM; for `Cc1ccc(-c2c(C#N)c(-c3ccccc3)n(NS(=O)(=O)c3ccccc3)c(=O)c2C#N)cc1`: greater than 100 µM.
On the same count and under the same terms, the same measure for `COc1ccc(C(C#N)NNC(=O)c2ccccc2O)cc1OC` (stereo not drawn): greater than 100 µM.
Still for that read-out and setting: the same measure for `O=c1[nH]n2c(=O)cc[nH]c2c1-c1nnns1`: greater than 100 µM; for `N.N.N.O=[N+]([O-])[O-].O=[N+]([O-])[O-].O=[N+]([O-])[O-].O=[N+]([O-])[O-].[Co+3]`: greater than 100 µM.
In turn, `Cc1nnc(Nc2ccccc2)o1` gave a TGI greater than 100 µM.

The subject of another assay is U251 CNS. Briefly: NCI tumour cell line growth inhibition, 48 h.
As for `NC(C(F)(F)F)(C(F)(F)F)P(=O)(Cc1ccccc1)Cc1ccccc1`, the TGI was greater than 100 µM.
Still for that read-out and setting: under `S=C(N/N=C\C=N/NC(=S)N1CCCCC1)N1CCCCC1` stands greater than 100 µM; under `CN1C(=O)C2C(=O)N(Cc3ccccc3)CC(=O)N2c2cccnc21` (stereo not drawn), greater than 100 µM; under `Cc1cc(N(CCC#N)CCC#N)ccc1/C=N/NC(=O)c1cc(Cl)ccc1O`, greater than 100 µM.
Turning to `Cc1ccc(C(=O)Nc2ccc(CP(=O)(O)O)cc2CP(=O)(O)O)cc1NC(=O)c1cccc(N)c1`, the TGI is greater than 100 µM.
For `CN(C)/N=N/c1nc2c(c(=O)n(C)c(=O)n2C)n1C`, the TGI is greater than 100 µM.
Still for that read-out and setting: the same measure for `COc1ccccc1N/C(=C\C(=O)C(=O)NC12CC3CC(CC(C3)C1)C2)c1ccccc1`: greater than 10 µM.
Regarding `Nc1cc(CO)cc(Nc2nc3ccc(Cl)cc3c3[nH]c4ccccc4c23)c1`, the TGI was determined as 23.9 µM.
Still for that read-out and setting: under `O=C(CC(=O)n1nc(-c2ccccc2)c(N=Nc2ccccc2C(=O)O)c1-c1ccccc1)Nc1ccc(Cl)cc1` stands greater than 100 µM; under `CCN1CC2=C(NC(=S)NC2c2ccc(Cl)cc2)/C(=C/c2ccc(Cl)cc2)C1` (stereo not drawn), greater than 100 µM.
Same read-out and setting: under `CN1C(=O)N(c2ccccc2)C2(CCN(CC3COc4ccccc4O3)CC2)C1=O` (stereo not drawn) stands greater than 100 µM.
Still for that read-out and setting: the same measure for `CCOC(=O)C1Cc2[nH]c3ccccc3c2C(C)C1C` (stereo not drawn): 35.1 µM; for `NC(=O)N/N=C(\Cc1nc2ccc(Cl)cc2[nH]c1=O)C(=O)Nc1ccc(Cl)cc1Cl`: greater than 100 µM.
With `O=c1nc(N2CCN(c3ccccc3)CC2)ccn1C1OC(CO)C(O)C1O` (stereo not drawn), the TGI was greater than 100 µM.
The same measure, in the same setting: under `OCCCCCNc1c2ccccc2nc2ccccc12` stands 20.8 µM; under `O=C(/C=C/c1ccc(O)c([N+](=O)[O-])c1)CC(=O)/C=C/c1ccc(O)c([N+](=O)[O-])c1`, 55.3 µM; under `CC(C)=CCOC(=O)C(C)=[N+]=[N-]`, greater than 100 µM.
`Cn1cc2ccccc2c1-c1nc(N)nc(F)n1`: the TGI was greater than 100 µM.
The same measure, in the same setting: under `CC(C)(N=NC(C)(C)C(=O)NCCO)C(=O)NCCO` stands greater than 100 µM; under `c1ccc2c(c1)OC(N1CCCC1)c1cnc(N3CCCC3)nc1-2` (stereo not drawn), greater than 100 µM; under `CC1=C(O)C(=O)[C@@H]2O[C@@H]2C1=O`, 46.3 µM.
Same read-out and setting: the same measure for `CC(C)c1ccc2[nH]c(O)c(-c3[nH]c4ccccc4c3N=O)c2c1`: 19.9 µM; for `CCCCCCCCCCCCCCCCCCNc1ccn(C2OC(COP(=O)(O)OCC3OC(n4ccc(NC(=O)CCCCCCCCCCCCCCCCC)nc4=O)C(OC(C)=O)C3OC(C)=O)C(OC(C)=O)C2OC(C)=O)c(=O)n1` (stereo not drawn): greater than 100 µM.
For `Cc1nc2c(sc(=S)n2-c2ccccc2)c2nc3ncccc3n12`, the TGI was greater than 100 µM.
In turn, `Cc1ccc(-c2c(C#N)c(-c3ccccc3)n(NS(=O)(=O)c3ccccc3)c(=O)c2C#N)cc1` came in with a TGI greater than 100 µM.
Consider `COc1ccc(N2C(=O)C3c4[nH]c5ccc(OCc6ccccc6)cc5c4C4CCC(C(C)(C)C)CC4C3C2=O)cc1` (stereo not drawn), for which the TGI amounted to 60.4 µM.
Still for that read-out and setting: under `COc1ccc(C(C#N)NNC(=O)c2ccccc2O)cc1OC` (stereo not drawn) stands greater than 100 µM.
`O=c1[nH]n2c(=O)cc[nH]c2c1-c1nnns1`: the TGI was greater than 100 µM.
For the compound `N.N.N.O=[N+]([O-])[O-].O=[N+]([O-])[O-].O=[N+]([O-])[O-].O=[N+]([O-])[O-].[Co+3]`, the TGI is greater than 100 µM.
Still for that read-out and setting: the same measure for `Cc1nnc(Nc2ccccc2)o1`: greater than 100 µM.
